In ChEMBL document CHEMBL4622906, “Design, synthesis and evaluation of novel levoglucosenone derivatives as promising anticancer agents” (Bioorg Med Chem Lett, 2020):
pIC50: −log10 of the molar value. Active and inactive are the calls of the source. No cut-off for these calls is given here.

Test system: not listed separately
Assay: Selectivity index, ratio of IC50 for African green monkey Vero cells to IC50 for human H1299 cells
Type: toxicity
Conditions: Vero cells versus H1299 cells, read-out: Ratio IC50

| SMILES | selectivity ratio |
| --- | --- |
| O=C1C[C@H](OCc2cn(C(=O)OCC3c4ccccc4-c4ccccc43)nn2)[C@H]2CO[C@@H]1O2 | 5 |
| O=C1C[C@H](OCc2cn(C3CCCCC3)nn2)[C@H]2CO[C@@H]1O2 | 5 |

Test system: not listed separately
Assay: Selectivity index, ratio of IC50 for African green monkey Vero cells to IC50 for human MDA-MB-231 cells
Type: toxicity
Conditions: Vero cells versus MDA-MB-231 cells, read-out: Ratio IC50

| SMILES | selectivity ratio |
| --- | --- |
| O=C1C[C@H](OCc2cn(C(=O)OCC3c4ccccc4-c4ccccc43)nn2)[C@H]2CO[C@@H]1O2 | > 2 |
| O=C1C[C@H](OCc2cn(C3CCCCC3)nn2)[C@H]2CO[C@@H]1O2 | > 2 |

Test system: HT-29
Assay: Cytotoxicity against human HT-29 cells assessed as reduction in cell viability incubated for 48 hrs by MTT assay
Type: functional, cell-based
Conditions: HT-29, 48 h

| SMILES | pIC50 |
| --- | --- |
| C=C(C)Cn1cc(CO[C@H]2CC(=O)[C@@H]3OC[C@H]2O3)nn1 | 4.76 |
| O=C1C[C@H](OCc2cc(-c3ccc(Cl)cc3)no2)[C@H]2CO[C@@H]1O2 | 4.84 |
| O=C1C[C@H](OCc2cc(-c3ccc([N+](=O)[O-])cc3)no2)[C@H]2CO[C@@H]1O2 | 4.70 |
| O=C1C[C@H](OCc2cn(C(=O)OCC3c4ccccc4-c4ccccc43)nn2)[C@H]2CO[C@@H]1O2 | 4.81 |
| O=C1C[C@H](OCc2cn(-c3ccccc3)nn2)[C@H]2CO[C@@H]1O2 | 4.87 |
| O=C1C[C@H](OCc2cc(/C=C/c3ccccc3)no2)[C@H]2CO[C@@H]1O2 | 4.86 |
| O=C1C[C@H](OCc2cc(C3CCCCC3)no2)[C@H]2CO[C@@H]1O2 | 5.05 |
| O=C1C[C@H](OCc2cn(C3CCCCC3)nn2)[C@H]2CO[C@@H]1O2 | 4.92 |
| O=C1C[C@H](OCc2cc(-c3ccccc3)no2)[C@H]2CO[C@@H]1O2 | 4.77 |
| O=C1C[C@H](OCc2cc(-c3ccc(Cl)o3)no2)[C@H]2CO[C@@H]1O2 | 5.00 |
| O=C1C[C@H](OCc2cn(-c3ccc(Cl)cc3)nn2)[C@H]2CO[C@@H]1O2 | 4.83 |
| O=C1C[C@H](OCc2cn(-c3ccc([N+](=O)[O-])cc3)nn2)[C@H]2CO[C@@H]1O2 | 4.74 |

Test system: MDA-MB-231
Assay: Cytotoxicity against human MDA-MB-231 cells with p53 knock down assessed as reduction in cell viability incubated for 48 hrs by MTT assay
Type: functional, cell-based
Conditions: not given

| SMILES | inhibition |
| --- | --- |
| C=C(C)Cn1cc(CO[C@H]2CC(=O)[C@@H]3OC[C@H]2O3)nn1 | inactive |
| O=C1C[C@H](OCc2cc(-c3ccc(Cl)cc3)no2)[C@H]2CO[C@@H]1O2 | inactive |
| O=C1C[C@H](OCc2cc(-c3ccc([N+](=O)[O-])cc3)no2)[C@H]2CO[C@@H]1O2 | inactive |
| O=C1C[C@H](OCc2cn(C(=O)OCC3c4ccccc4-c4ccccc43)nn2)[C@H]2CO[C@@H]1O2 | inactive |
| O=C1C[C@H](OCc2cn(-c3ccccc3)nn2)[C@H]2CO[C@@H]1O2 | inactive |
| O=C1C[C@H](OCc2cc(/C=C/c3ccccc3)no2)[C@H]2CO[C@@H]1O2 | inactive |
| O=C1C[C@H](OCc2cc(C3CCCCC3)no2)[C@H]2CO[C@@H]1O2 | inactive |
| O=C1C[C@H](OCc2cn(C3CCCCC3)nn2)[C@H]2CO[C@@H]1O2 | inactive |
| O=C1C[C@H](OCc2cc(-c3ccccc3)no2)[C@H]2CO[C@@H]1O2 | inactive |
| O=C1C[C@H](OCc2cc(-c3ccc(Cl)o3)no2)[C@H]2CO[C@@H]1O2 | inactive |
| O=C1C[C@H](OCc2cn(-c3ccc(Cl)cc3)nn2)[C@H]2CO[C@@H]1O2 | inactive |
| O=C1C[C@H](OCc2cn(-c3ccc([N+](=O)[O-])cc3)nn2)[C@H]2CO[C@@H]1O2 | inactive |

Test system: not listed separately
Assay: Selectivity index, ratio of IC50 for African green monkey Vero cells to IC50 for human HT-29 cells
Type: toxicity
Conditions: Vero cells versus HT-29 cells, read-out: Ratio IC50

| SMILES | selectivity ratio |
| --- | --- |
| O=C1C[C@H](OCc2cn(C(=O)OCC3c4ccccc4-c4ccccc43)nn2)[C@H]2CO[C@@H]1O2 | 6 |
| O=C1C[C@H](OCc2cn(C3CCCCC3)nn2)[C@H]2CO[C@@H]1O2 | 6 |

Test system: MDA-MB-231
Assay: Cytotoxicity against human MDA-MB-231 cells assessed as reduction in cell viability incubated for 48 hrs by MTT assay
Type: functional, cell-based
Conditions: MDA-MB-231, 48 h

| SMILES | pIC50 |
| --- | --- |
| COc1ccc(Cn2cc(CO[C@H]3CC(=O)[C@@H]4OC[C@H]3O4)nn2)cc1 | 4.46 |
| COC(=O)Cn1cc(CN(C(C)=O)[C@H]2CC(=O)[C@@H]3OC[C@H]2O3)nn1 | < 4.30 |
| O=C1C[C@H](OCc2cn(-c3ccccc3Br)nn2)[C@H]2CO[C@@H]1O2 | 4.65 |
| O=C1C[C@H](OCc2cc(-c3ccc4ccccc4c3)no2)[C@H]2CO[C@@H]1O2 | 4.67 |
| C=C(C)Cn1cc(CO[C@H]2CC(=O)[C@@H]3OC[C@H]2O3)nn1 | 4.57 |
| O=C1C[C@H](OCc2cc(-c3ccc(Cl)cc3)no2)[C@H]2CO[C@@H]1O2 | 4.75 |
| O=C1C[C@H](OCc2cc(-c3ccc([N+](=O)[O-])cc3)no2)[C@H]2CO[C@@H]1O2 | 4.78 |
| O=C1C[C@H](OCc2cn(C(=O)OCC3c4ccccc4-c4ccccc43)nn2)[C@H]2CO[C@@H]1O2 | 4.73 |
| O=C1C[C@H](OCc2cn(-c3ccccc3Cl)nn2)[C@H]2CO[C@@H]1O2 | 4.58 |
| COC(=O)Cn1cc(CO[C@H]2CC(=O)[C@@H]3OC[C@H]2O3)nn1 | 4.67 |
| O=C1C[C@H](OCc2cn(-c3ccc(F)cc3)nn2)[C@H]2CO[C@@H]1O2 | 4.63 |
| O=C1CCCCC1n1cc(CO[C@H]2CC(=O)[C@@H]3OC[C@H]2O3)nn1 (some centres undefined) | 4.44 |
| CCCCn1cc(CO[C@H]2CC(=O)[C@@H]3OC[C@H]2O3)nn1 | 4.55 |
| O=C1C[C@H](OCc2cn(-c3ccccc3)nn2)[C@H]2CO[C@@H]1O2 | 4.60 |
| O=C1C[C@H](OCc2cc(/C=C/c3ccccc3)no2)[C@H]2CO[C@@H]1O2 | 4.64 |
| O=C1C[C@H](OCc2cc(C3CCCCC3)no2)[C@H]2CO[C@@H]1O2 | 4.80 |
| O=C1C[C@H](OCc2cn(Cc3ccccc3)nn2)[C@H]2CO[C@@H]1O2 | < 4.30 |
| O=C1C[C@H](OCc2cn(C3CCCCC3)nn2)[C@H]2CO[C@@H]1O2 | 4.61 |

| SMILES | pIC50 |
| --- | --- |
| O=C(O)c1ccc(-n2cc(CO[C@H]3CC(=O)[C@@H]4OC[C@H]3O4)nn2)cc1 | 4.63 |
| COc1ccc(/C=C/c2cc(CO[C@H]3CC(=O)[C@@H]4OC[C@H]3O4)on2)cc1 | 4.58 |
| O=C1C[C@H](OCc2cc(-c3ccccc3)no2)[C@H]2CO[C@@H]1O2 | 4.66 |
| CCCCCCCCn1cc(CN(C(C)=O)[C@H]2CC(=O)[C@@H]3OC[C@H]2O3)nn1 | < 4.30 |
| COc1ccc(-c2cc(CO[C@H]3CC(=O)[C@@H]4OC[C@H]3O4)on2)cc1 | 4.66 |
| CC(=O)N(Cc1cn(CC(=O)c2ccccc2)nn1)[C@H]1CC(=O)[C@@H]2OC[C@H]1O2 | < 4.30 |
| CCCCCCCCn1cc(CO[C@H]2CC(=O)[C@@H]3OC[C@H]2O3)nn1 | < 4.30 |
| O=C1C[C@H](OCc2cn(Cc3ccc([N+](=O)[O-])cc3)nn2)[C@H]2CO[C@@H]1O2 | 4.60 |
| O=C1C[C@H](OCc2cn(Cc3ccc4ccccc4c3)nn2)[C@H]2CO[C@@H]1O2 | 4.63 |
| CC(=O)N(Cc1cn(Cc2ccccc2)nn1)[C@H]1CC(=O)[C@@H]2OC[C@H]1O2 | < 4.30 |
| O=C1C[C@H](OCc2cc(-c3ccc(Cl)o3)no2)[C@H]2CO[C@@H]1O2 | 4.86 |
| O=C1C[C@H](OCc2cn(-c3ccc(Cl)cc3)nn2)[C@H]2CO[C@@H]1O2 | 4.58 |
| O=C1C[C@H](OCc2cn(-c3cccc(Cl)c3Cl)nn2)[C@H]2CO[C@@H]1O2 | 4.59 |
| O=C1C[C@H](OCc2cc(-c3cc(C(F)(F)F)cc(C(F)(F)F)c3)no2)[C@H]2CO[C@@H]1O2 | 4.62 |
| O=C(Cn1cc(CO[C@H]2CC(=O)[C@@H]3OC[C@H]2O3)nn1)c1ccccc1 | 4.59 |
| O=C1C[C@H](OCc2cn(-c3ccc([N+](=O)[O-])cc3)nn2)[C@H]2CO[C@@H]1O2 | 4.61 |
| O=C1C[C@H](OCc2cn(-c3cccc4ccccc34)nn2)[C@H]2CO[C@@H]1O2 | 4.66 |

Test system: NCI-H1299
Assay: Cytotoxicity against human H1299 cells with p53 R280K mutant assessed as reduction in cell viability incubated for 48 hrs by MTT assay
Type: functional, cell-based
Conditions: not given

| SMILES | cytotoxicity activity call (active/inactive) |
| --- | --- |
| C=C(C)Cn1cc(CO[C@H]2CC(=O)[C@@H]3OC[C@H]2O3)nn1 | Active |
| O=C1C[C@H](OCc2cc(-c3ccc(Cl)cc3)no2)[C@H]2CO[C@@H]1O2 | Active |
| O=C1C[C@H](OCc2cc(-c3ccc([N+](=O)[O-])cc3)no2)[C@H]2CO[C@@H]1O2 | Active |
| O=C1C[C@H](OCc2cn(C(=O)OCC3c4ccccc4-c4ccccc43)nn2)[C@H]2CO[C@@H]1O2 | Active |
| O=C1C[C@H](OCc2cn(-c3ccccc3)nn2)[C@H]2CO[C@@H]1O2 | Active |
| O=C1C[C@H](OCc2cc(/C=C/c3ccccc3)no2)[C@H]2CO[C@@H]1O2 | Active |
| O=C1C[C@H](OCc2cc(C3CCCCC3)no2)[C@H]2CO[C@@H]1O2 | Active |
| O=C1C[C@H](OCc2cn(C3CCCCC3)nn2)[C@H]2CO[C@@H]1O2 | Active |
| O=C1C[C@H](OCc2cc(-c3ccccc3)no2)[C@H]2CO[C@@H]1O2 | Active |
| O=C1C[C@H](OCc2cc(-c3ccc(Cl)o3)no2)[C@H]2CO[C@@H]1O2 | Active |
| O=C1C[C@H](OCc2cn(-c3ccc(Cl)cc3)nn2)[C@H]2CO[C@@H]1O2 | Active |
| O=C1C[C@H](OCc2cn(-c3ccc([N+](=O)[O-])cc3)nn2)[C@H]2CO[C@@H]1O2 | Active |

Test system: NCI-H1299
Assay: Cytotoxicity against human H1299 cells assessed as reduction in cell viability incubated for 48 hrs by MTT assay
Type: functional, cell-based
Conditions: NCI-H1299, 48 h

| SMILES | pIC50 |
| --- | --- |
| C=C(C)Cn1cc(CO[C@H]2CC(=O)[C@@H]3OC[C@H]2O3)nn1 | 4.84 |
| O=C1C[C@H](OCc2cc(-c3ccc(Cl)cc3)no2)[C@H]2CO[C@@H]1O2 | 5.05 |
| O=C1C[C@H](OCc2cc(-c3ccc([N+](=O)[O-])cc3)no2)[C@H]2CO[C@@H]1O2 | 4.95 |
| O=C1C[C@H](OCc2cn(C(=O)OCC3c4ccccc4-c4ccccc43)nn2)[C@H]2CO[C@@H]1O2 | 5.05 |
| O=C1C[C@H](OCc2cn(-c3ccccc3)nn2)[C@H]2CO[C@@H]1O2 | 4.96 |
| O=C1C[C@H](OCc2cc(/C=C/c3ccccc3)no2)[C@H]2CO[C@@H]1O2 | 5.15 |
| O=C1C[C@H](OCc2cc(C3CCCCC3)no2)[C@H]2CO[C@@H]1O2 | 5.21 |
| O=C1C[C@H](OCc2cn(C3CCCCC3)nn2)[C@H]2CO[C@@H]1O2 | 4.92 |
| O=C1C[C@H](OCc2cc(-c3ccccc3)no2)[C@H]2CO[C@@H]1O2 | 5.01 |
| O=C1C[C@H](OCc2cc(-c3ccc(Cl)o3)no2)[C@H]2CO[C@@H]1O2 | 5.12 |
| O=C1C[C@H](OCc2cn(-c3ccc(Cl)cc3)nn2)[C@H]2CO[C@@H]1O2 | 4.97 |
| O=C1C[C@H](OCc2cn(-c3ccc([N+](=O)[O-])cc3)nn2)[C@H]2CO[C@@H]1O2 | 4.99 |
